Values of other authors, collected in patent US7214684B2, “Methods for the treatment of allergic rhinitis” (Sepracor Inc., priority 1994, dated 2007).

Experiments:
[1] = tested on: melanoma and fibrosarcoma tumors; settings: Brandes et al. 1994
H-2 histamine receptor = H-2 histamine receptor (Homo sapiens, UniProt P25021); settings: H-2 receptor-mediated response
Chain of H-2 histamine receptor (P25021 whole entry): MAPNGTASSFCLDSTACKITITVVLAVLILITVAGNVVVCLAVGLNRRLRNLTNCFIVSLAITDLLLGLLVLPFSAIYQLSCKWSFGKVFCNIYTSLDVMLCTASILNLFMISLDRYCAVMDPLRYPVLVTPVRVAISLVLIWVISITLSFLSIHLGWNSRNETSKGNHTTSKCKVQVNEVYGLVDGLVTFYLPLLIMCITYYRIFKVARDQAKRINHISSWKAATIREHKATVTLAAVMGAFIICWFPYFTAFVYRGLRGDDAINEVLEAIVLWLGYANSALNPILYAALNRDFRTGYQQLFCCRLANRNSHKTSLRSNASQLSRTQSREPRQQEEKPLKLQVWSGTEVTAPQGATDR

Row | effect on the chronotropic effect of histamine on atria (H-2 histamine receptor) | SMILES | association with tumor growth [1]
1 | nor does it alter | CCOC(=O)N1CCC(=C2c3ccc(Cl)cc3CCc3cccnc32)CC1 [Loratadine] | associated with growth of both melanoma and fibrosarcoma tumors
2 | – | COc1ccc(CCN2CCC(Nc3nc4ccccc4n3Cc3ccc(F)cc3)CC2)cc1 [astemizole] | associated with growth of both melanoma and fibrosarcoma tumors
